Results taken from PubChem BioAssay AID1963450 (Molecular Pharmacology Branch, DTP, NCI, 2024).

System: 556581-035-R-J1-PDC complex spheroid growth
Assay: Anticancer human tumor 556581-035-R-J1-PDC patient-derived ovarian carcinoma cell line growth inhibition [Asc]
Details: for IC50: curve of first compound; for viability, T/C: stronger effect = lower value
Description: Multicellular complex tumor spheroid response to apoptosis pathway targeting inhibitors Alrizomadlin, Pelcitoclax, and Dasminapant in combination with a variety of drugs and investigational agents in selected tumor cell lines
The MDM2 inhibitor alrizomadlin, the Bcl-2/Bcl-xL inhibitor pelcitoclax, and the IAPs inhibitor dasminapant were evaluated both individually and in combination with standard of care and investigational anticancer small molecules within a complex spheroid model of solid tumors. . Complex spheroids include a stromal component modeled by human endothelial cells (HUVEC) and fibroblasts modeled by human mesenchymal stem cells (MSCs). The concentration ranges selected for each drug and investigational agent were based upon clinically achievable concentrations if the clinical Cmax of the agent was known.
Compounds. The drugs and investigational agents: alrizomadlin (APG-115; NSC831270), pelcitoclax (APG-1252; NSC835773), dasminapant (APG-1387;NSC834197), TAK-243 (NSC785004), copanlisib (NSC809693), olaparib (NSC753686), talazoparib (NSC767125), cobimetinib (NSC 768068), eltanexor (KPT-8602, NSC 794443), abemaciclib (NSC 768073), sotorasib (NSC818433), adagrasib (NSC 831453), MRTX-1133 (NSC 836407), Iadademestat (ORY1001, NSC 806812), and RMC-4630 (NSC839698), were obtained from the NCI Developmental Therapeutics Program Chemical Repository. The FDA-approved anticancer drug set is available from the Developmental Therapeutics Program at https://dtp.cancer.gov/organization/dscb/obtaining/available plates.htm. […] The stock solutions were prepared in dimethyl sulfoxide (DMSO, Sigma-Aldrich, St. Louis, MO, cat. D2650) at 800-fold the tested concentration and stored at -70 degrees C prior to their use. All drugs and investigational agents were tested over a range starting from a high concentration at or near the clinical Cmax and decreasing in half-log increments. If the clinical Cmax for an agent had not been determined, the highest concentration tested was 10 microM.
The patient-derived cancer (PDC) cell lines include five colon adenocarcinomas: 186277-243-T-J2-PDC, 616215-338-R-J1-PDC, 439559-082-T-J2-PDC, 463943-066-T-J2-PDC, and 519858-162-T-J1-PDC; three pancreatic carcinomas: 323965-272-R-J2-PDC, 521955-158-R6-J3-PDC, and 521955-158-R2-J5-PDC; two uterine sarcomas: 327498-152-R-J2-PDC and 993429-296-R-J1-PDC; two rhabdomyosarcomas: 755483-174-R-J1-PDC and 772245-204-R-J1-PDC; two soft tissue sarcomas: 126254-015-R-J1-PDC and 494315-158-R-J1-PDC; two malignant fibrous histiocytomas: 317291-083-R-J1-PDC and 596521-263-R-J1-PDC; two breast carcinomas: 171881-019-R-J1-PDC and 885512-296-R-J2-PDC; and one ovarian carcinoma: 6556581-035-R-J-PDC were obtained from the NCI PDMR, (https://pdmr.cancer.gov). The established cell lines HSSY-2 synovial sarcoma (RRID:CVCL 8719), SYO-1 synovial sarcoma (RRID:CVCL_7146), MPNST malignant peripheral neural sheath tumor were obtained from the Sloan Kettering Institute. The following established cell lines were purchased from the American Type Culture Collection (ATCC, Manassas, VA), Sor the received from the NCI repository:, PANC-1 pancreatic carcinoma (CRL-1469, RRID:CVCL_0480), OVCAR-5 ovarian carcinoma (RRID:CVCL_1628), OVCAR-8 ovarian carcinoma (RRID:CVCL_1629), , MCF-7 breast carcinoma (CRL-12584, RRID:CVCL_0031), MDA-MB-231 breast carcinoma (CRL-12532, RRID:CVCL_0062), NCI-H1876 small cell lung carcinoma (CRL-5902, RRID:CVCL_1503), NCI-H510A small cell lung carcinoma (HTB-184, RRID:CVCL_1565), NCI-H1417 (CRL-5869, RRID:CVCL_1469), and NCI-H196 small cell lung carcinoma (CRL-5823, RRID:CVCL_1509). Dr. Peter Houghton (Greehey Children's Cancer Research Institute, University of Texas Health Science Center, San Antonio, TX) provided Rh-18 rhabdomyosarcoma (RRID:CVCL_1659). Pooled donor human umbilical vein endothelial cells (HUVEC, Lonza, cat. CC-2519) and human mesenchymal stem cells (hMSC, Lonza, cat. PT-2501) were purchased from Lonza (Walkersville, MD).
Cell Culture. […]

[1] = second compound 0.03 µM, first compound 0.00316 µM
[2] = second compound 0.03 µM, first compound 0.01 µM
[3] = second compound 0.03 µM, first compound 0.0316 µM
[4] = second compound 0.03 µM, first compound 0.1 µM
[5] = second compound 0.03 µM, first compound 0.316 µM
[6] = second compound 0.03 µM, first compound 1 µM
[7] = second compound 0.0949 µM, first compound 0.00316 µM
[8] = second compound 0.0949 µM, first compound 0.01 µM
[9] = second compound 0.0949 µM, first compound 0.0316 µM
[10] = second compound 0.0949 µM, first compound 0.1 µM
[11] = second compound 0.0949 µM, first compound 0.316 µM
[12] = second compound 0.0949 µM, first compound 1 µM
[13] = second compound 0.3 µM, first compound 0.00316 µM
[14] = second compound 0.3 µM, first compound 0.01 µM
[15] = second compound 0.3 µM, first compound 0.0316 µM
[16] = second compound 0.3 µM, first compound 0.1 µM
[17] = second compound 0.3 µM, first compound 0.316 µM
[18] = second compound 0.3 µM, first compound 1 µM
[19] = second compound 0.949 µM, first compound 0.00316 µM
[20] = second compound 0.949 µM, first compound 0.01 µM
[21] = second compound 0.949 µM, first compound 0.0316 µM
[22] = second compound 0.949 µM, first compound 0.1 µM
[23] = second compound 0.949 µM, first compound 0.316 µM
[24] = second compound 0.949 µM, first compound 1 µM
[25] = second compound 3 µM, first compound 0.00316 µM
[26] = second compound 3 µM, first compound 0.01 µM
[27] = second compound 3 µM, first compound 0.0316 µM
[28] = second compound 3 µM, first compound 0.1 µM
[29] = second compound 3 µM, first compound 0.316 µM
[30] = second compound 3 µM, first compound 1 µM
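Also: spheroids exposed to agents for 7 days before viability read.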

Structure (SMILES): CCN1CCN(Cc2ccc(Nc3ncc(F)c(-c4cc(F)c5nc(C)n(C(C)C)c5c4)n3)nc2)CC1 + CCN1C(C(=O)NC23CCC(C(=O)O)(CC2)CC3)C(c2cccc(Cl)c2F)C2(C(=O)Nc3cc(Cl)ccc32)C12CCCCC2
- IC50 (second compound 0.03 µM): > 1000 nM
- IC50 (second compound 0.0949 µM): > 1000 nM
- IC50 (second compound 0.3 µM): > 1000 nM
- IC50 (second compound 0.949 µM): > 1000 nM
- IC50 (second compound 3 µM): > 1000 nM
- viability, T/C [1]: 91.6%
- viability, T/C [2]: 84.4%
- viability, T/C [3]: 94%
- viability, T/C [4]: 81.8%
- viability, T/C [5]: 102%
- viability, T/C [6]: 88%
- viability, T/C [7]: 107%
- viability, T/C [8]: 98%
- viability, T/C [9]: 95.2%
- viability, T/C [10]: 106%
- viability, T/C [11]: 98.2%
- viability, T/C [12]: 87.2%
- viability, T/C [13]: 102%
- viability, T/C [14]: 82.5%
- viability, T/C [15]: 96.8%
- viability, T/C [16]: 99.7%
- viability, T/C [17]: 92.3%
- viability, T/C [18]: 88.4%
- viability, T/C [19]: 84.9%
- viability, T/C [20]: 88.5%
- viability, T/C [21]: 92.9%
- viability, T/C [22]: 92.9%
- viability, T/C [23]: 81.1%
- viability, T/C [24]: 91.6%
- viability, T/C [25]: 81.7%
- viability, T/C [26]: 83.3%
- viability, T/C [27]: 82.6%
- viability, T/C [28]: 83.5%
- viability, T/C [29]: 87.2%
- viability, T/C [30]: 86.2%

Structure (SMILES): O=C(c1ccc(F)c(F)c1Nc1ccc(I)cc1F)N1CC(O)([C@@H]2CCCCN2)C1 + CCN1C(C(=O)NC23CCC(C(=O)O)(CC2)CC3)C(c2cccc(Cl)c2F)C2(C(=O)Nc3cc(Cl)ccc32)C12CCCCC2
- IC50 (second compound 0.03 µM): 209 nM
- IC50 (second compound 0.0949 µM): 208 nM
- IC50 (second compound 0.3 µM): 181 nM
- IC50 (second compound 0.949 µM): 188 nM
- IC50 (second compound 3 µM): 92.1 nM
- viability, T/C [1]: 118%
- viability, T/C [2]: 99.4%
- viability, T/C [3]: 97.7%
- viability, T/C [4]: 72.9%
- viability, T/C [5]: 35.9%
- viability, T/C [6]: 10.6%
- viability, T/C [7]: 108%
- viability, T/C [8]: 114%
- viability, T/C [9]: 95.8%
- viability, T/C [10]: 85.9%
- viability, T/C [11]: 29.6%
- viability, T/C [12]: 10.4%
- viability, T/C [13]: 106%
- viability, T/C [14]: 104%
- viability, T/C [15]: 127%
- viability, T/C [16]: 73.5%
- viability, T/C [17]: 29.8%
- viability, T/C [18]: 9.99%
- viability, T/C [19]: 99.1%
- viability, T/C [20]: 119%
- viability, T/C [21]: 100%
- viability, T/C [22]: 78.1%
- viability, T/C [23]: 26.8%
- viability, T/C [24]: 12.4%
- viability, T/C [25]: 99.9%
- viability, T/C [26]: 97.3%
- viability, T/C [27]: 86.3%
- viability, T/C [28]: 47.3%
- viability, T/C [29]: 17.2%
- viability, T/C [30]: 11.4%
